# In patent US20070128217A1 (priority 2003, published 2007):
# Assays:
# [1] = tested on: antibodies in sera from SARS patients (sera 1a, 1b, 2, 6, 37, 62, London, SARS-yellow, SARS-green); type: binding, human; set-up: Binding of serum 6 to linear peptides of protein X1 of SARS-CoV Urbani / Binding of serum 37 to linear peptides of protein X1 of SARS-CoV Urbani / Binding of serum 6 to looped/cyclic peptide (PEPSCAN-ELISA) / Binding of serum 37 to looped/cyclic peptide (PEPSCAN-ELISA) / Binding of serum 37 to looped/cyclic peptides of protein X1 of SARS-CoV Urbani / Binding of serum 6 to linear peptides of protein X2 / Binding of serum 37 to linear peptides of protein X2 / Binding of serum 37 to looped/cyclic peptides of protein X2 of SARS-CoV Urbani / Binding of serum 6 to linear peptides of protein M of SARS-CoV Urbani / Binding of serum 37 to linear peptides of protein M of SARS-CoV Urbani / Binding of serum 6 to looped/cyclic peptides of protein M of SARS-CoV Urbani / Binding of serum 37 to looped/cyclic peptides of protein M of SARS-CoV Urbani / Binding of serum 6 to linear peptides of protein X3 of SARS-CoV Urbani / Binding of serum 37 to linear peptides of protein X3 of SARS-CoV Urbani / Binding of serum 37 to looped/cyclic peptides of protein X3 of SARS-CoV Urbani / Binding of serum 6 to linear peptides of protein X4 of SARS-CoV Urbani / Binding of serum 37 to linear peptides of protein X4 of SARS-CoV Urbani / Binding of serum 37 to looped/cyclic peptides of protein X4 of SARS-CoV Urbani / Binding of serum 6 to linear peptides of protein X5 of SARS-CoV Urbani / Binding of serum 37 to linear peptides of protein X5 of SARS-CoV Urbani / Binding of serum 37 to looped/cyclic peptides of protein X5 of SARS-CoV Urbani / Binding of serum 6 to linear peptides of protein N of SARS-CoV Urbani / Binding of serum 37 to linear peptides of protein N of SARS-CoV Urbani / Binding of serum 6 to linear peptide (PEPSCAN-ELISA) / Binding of serum 1a to looped/cyclic peptides of protein N of SARS-CoV Urbani / Binding of serum 1b to looped/cyclic peptides of protein N of SARS-CoV Urbani / Binding of serum 2 to looped/cyclic peptides of protein N of SARS-CoV Urbani / Binding of serum 6 to looped/cyclic peptides of protein N of SARS-CoV Urbani / Binding of serum 37 to looped/cyclic peptides of protein N of SARS-CoV Urbani / Binding of serum 62 to looped/cyclic peptides of protein N of SARS-CoV Urbani / Binding of serum London to looped/cyclic peptides of protein N of SARS-CoV Urbani / Binding of serum SARS-green to looped/cyclic peptides of protein N of SARS-CoV Urbani: unit not given here
# [2] = tested on: control sera (pooled serum of ten healthy LUMC hospital workers; commercial negative donor pooled serum from the Dutch bloodbank); type: binding, human; set-up: Binding of Control serum LUMC to linear peptides / Binding of Control serum Blood-bank to linear peptides / Binding of Control serum LUMC to looped peptides / Binding of Control Serum Blood-Bank to Looped peptides / Binding of Control serum LUMC to linear peptides of the protein M of SARS-CoV Urbani / Binding of Control serum Blood-bank to linear peptides of the protein M of SARS-CoV Urbani / Binding of Control serum LUMC to looped peptides of the protein M of SARS-CoV Urbani / Binding of Control Serum Blood-Bank to Looped peptides of the protein M of SARS-CoV Urbani: unit not given here
# [3] = tested on: rabbit serum obtained by immunizing a rabbit with the SARS-CoV strain Frankfurt 1; type: binding; set-up: Binding of a rabbit serum to linear peptides / Binding of a rabbit serum to looped peptides / Rabbit serum linear peptides / Rabbit serum looped peptides / Binding of a rabbit serum to linear peptides of protein N of SARS-CoV Urbani (Rabbit serum linear peptides) / Binding of a rabbit serum to looped/cyclic peptides of protein N of SARS-CoV Urbani (Rabbit serum looped peptides): unit not given here
# [4] = tested on: recombinant human anti-SARS-CoV antibody 03-018; type: binding; set-up: Binding of antibody 03-018 to linear peptides of the N protein of SARS-CoV Urbani / Binding of antibody 03-018 to looped/cyclic peptides of the N protein of SARS-CoV Urbani: unit not given here
sequence,measurement,setting,value
TKQYNVTQAFGRRGP,Binding of serum 1a to linear peptide (PEPSCAN-ELISA),[1],0.3
same,Binding of serum 1a to looped/cyclic peptides of protein N of SARS-CoV Urbani,[1],0.4
same,Binding of serum 1b to linear peptide (PEPSCAN-ELISA),[1],0.1
same,Binding of serum 1b to looped/cyclic peptides of protein N of SARS-CoV Urbani,[1],0.2
same,Binding of serum 2 to linear peptide (PEPSCAN-ELISA),[1],0.2
same,Binding of serum 2 to looped/cyclic peptides of protein N of SARS-CoV Urbani,[1],0.5
same,Binding of serum 6 to linear peptide (PEPSCAN-ELISA),[1],0.2
same,Binding of serum 6 to looped/cyclic peptides of protein N of SARS-CoV Urbani,[1],0.3
same,Binding of serum 37 to linear peptide (PEPSCAN-ELISA),[1],0.8
same,Binding of serum 37 to looped/cyclic peptides of protein N of SARS-CoV Urbani,[1],0.7
same,Binding of serum 62 to linear peptide (PEPSCAN-ELISA),[1],0.7
same,Binding of serum 62 to looped/cyclic peptides of protein N of SARS-CoV Urbani,[1],0.7
same,Binding of serum London to linear peptide (PEPSCAN-ELISA),[1],0.5
same,Binding of serum London to looped/cyclic peptides of protein N of SARS-CoV Urbani,[1],0.5
same,Binding of serum SARS-green to linear peptide (PEPSCAN-ELISA),[1],0.5
same,Binding of serum SARS-green to looped/cyclic peptides of protein N of SARS-CoV Urbani,[1],0.4
same,Binding of serum SARS-yellow to linear peptide (PEPSCAN-ELISA),[1],0.7
same,Binding of serum SARS-yellow to looped/cyclic peptides of protein N of SARS-CoV Urbani,[1],0.6
same,Binding of Control Serum Blood-Bank to Looped peptides,[2],0.9
same,Binding of Control serum Blood-bank to linear peptides,[2],0.8
same,Binding of Control serum LUMC to linear peptides,[2],0.8
same,Binding of Control serum LUMC to looped peptides,[2],0.9
same,Recognition of the peptide by the rabbit serum,[3],recognized
same,Binding of antibody 03-018 to linear peptides of the N protein of SARS-CoV Urbani,[4],0.1
same,Binding of antibody 03-018 to looped/cyclic peptides of the N protein of SARS-CoV Urbani,[4],0.3
TLLPAADMDDFSRQL,Binding of serum 1a to linear peptides of protein N of SARS-CoV Urbani,[1],0.3
same,Binding of serum 1a to looped/cyclic peptides of protein N of SARS-CoV Urbani,[1],0.4
same,Binding of serum 1b to linear peptides of protein N of SARS-CoV Urbani,[1],0.2
same,Binding of serum 1b to looped/cyclic peptides of protein N of SARS-CoV Urbani,[1],0.2
same,Binding of serum 2 to linear peptides of protein N of SARS-CoV Urbani,[1],0.2
same,Binding of serum 2 to looped/cyclic peptides of protein N of SARS-CoV Urbani,[1],0.5
same,Binding of serum 6 to linear peptides of protein N of SARS-CoV Urbani,[1],0.4
same,Binding of serum 6 to looped/cyclic peptides of protein N of SARS-CoV Urbani,[1],0.1
same,Binding of serum 37 to linear peptides of protein N of SARS-CoV Urbani,[1],1.0
same,Binding of serum 37 to looped/cyclic peptides of protein N of SARS-CoV Urbani,[1],0.4
same,Binding of serum 62 to linear peptides of protein N of SARS-CoV Urbani,[1],0.7
same,Binding of serum 62 to looped/cyclic peptides of protein N of SARS-CoV Urbani,[1],0.1
same,Binding of serum London to linear peptides of protein N of SARS-CoV Urbani,[1],0.6
same,Binding of serum London to looped/cyclic peptides of protein N of SARS-CoV Urbani,[1],0.2
same,Binding of serum SARS-green to linear peptides of protein N of SARS-CoV Urbani,[1],0.7
same,Binding of serum SARS-green to looped/cyclic peptides of protein N of SARS-CoV Urbani,[1],0.0
same,Binding of serum SARS-yellow to linear peptides of protein N of SARS-CoV Urbani,[1],0.7
same,Binding of serum SARS-yellow to looped/cyclic peptides of protein N of SARS-CoV Urbani,[1],0.4
same,Control Serum Blood-Bank Looped peptides,[2],0.5
same,Control serum Blood-bank linear peptides,[2],0.7
same,Control serum LUMC linear peptides,[2],0.8
same,Control serum LUMC looped peptides,[2],0.4
same,Binding of a rabbit serum to linear peptides of protein N of SARS-CoV Urbani (Rabbit serum linear peptides),[3],0.1
same,Binding of a rabbit serum to looped/cyclic peptides of protein N of SARS-CoV Urbani (Rabbit serum looped peptides),[3],0.0
same,Binding of antibody 03-018 to linear peptides of the N protein of SARS-CoV Urbani,[4],0.1
same,Binding of antibody 03-018 to looped/cyclic peptides of the N protein of SARS-CoV Urbani,[4],0.1
